Laboratory results from ChEMBL document CHEMBL1649577, “Influence of recombination on development of mutational resistance to linezolid in Enterococcus faecalis JH2-2” (2009).
Values after ≈ are worked out from the molar mass of the structure shown.

Columns and labels:
Type in all cases: functional
[1] = system: Enterococcus faecalis; test: Antimicrobial activity against Enterococcus faecalis JH2-2 harboring nucleotides at position 2576 in rrlA 2576T, rrlB 2576G, rrlC 2576T and rrlD 2576T after 9, 10, 11 passages under Linezolid selective pressure by agar dilution method
[2] = system: Enterococcus faecalis; test: Antimicrobial activity against Enterococcus faecalis JH2-2 harboring nucleotides at position 2576 in rrlA 2576T, rrlB 2576G, rrlC 2576G/T and rrlD 2576T after 6, 8 passages under Linezolid selective pressure by agar dilution method
[3] = system: Enterococcus faecalis; test: Antimicrobial activity against recombination-deficient Enterococcus faecalis JH2-2 recA harboring nucleotides at position 2576 in rrlA 2576T, rrlB 2576G, rrlC 2576T and rrlD 2576T after 10, 11 passages under Linezolid selective pressure by agar dilution method

CC(=O)NC[C@H]1CN(c2ccc(N3CCOCC3)c(F)c2)C(=O)O1 [LINEZOLID]
MIC [1]: 64 µg/mL (≈ 190 µM) | MIC [2]: 32 µg/mL (≈ 94.9 µM) | MIC [3]: 32 µg/mL
